According to patent US20250263416A1, “SPPL2a INHIBITORS” (Incyte Corporation, priority 2024, published 2025):
“Also recorded” adds a separate entry of the source.

Key:
human SPPL2a [1] = target: T1, human SPPL2a (Homo sapiens, UniProt Q8TCT8); test: Nuclear translocation imaging assay for human SPPL2a (SPPL2a reporter U2OS cell line); type: cell-based; settings: U2OS reporter cells, 24 h incubation
T1 construct: expressed in transfected cells; host or cells: U2OS (SPPL2a reporter cell line)
T1 sequence (Q8TCT8 26-520): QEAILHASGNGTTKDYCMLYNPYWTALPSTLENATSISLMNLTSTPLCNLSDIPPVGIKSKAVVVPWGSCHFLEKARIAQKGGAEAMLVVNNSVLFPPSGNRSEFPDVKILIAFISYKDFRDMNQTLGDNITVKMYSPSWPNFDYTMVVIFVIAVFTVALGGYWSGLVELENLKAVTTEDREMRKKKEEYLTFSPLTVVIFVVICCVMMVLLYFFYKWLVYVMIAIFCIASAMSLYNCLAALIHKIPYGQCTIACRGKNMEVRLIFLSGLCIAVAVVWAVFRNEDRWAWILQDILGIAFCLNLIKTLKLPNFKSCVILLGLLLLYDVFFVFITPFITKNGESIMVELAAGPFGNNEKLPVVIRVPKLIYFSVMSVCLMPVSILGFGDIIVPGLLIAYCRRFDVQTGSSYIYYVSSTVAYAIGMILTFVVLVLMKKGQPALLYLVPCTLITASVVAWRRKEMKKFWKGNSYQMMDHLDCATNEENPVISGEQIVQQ
Procedure: The nuclear translocation imaging assays for human SPPL2a were performed using an SPPL2a reporter U2OS cell line as previously described (Velcicky et al 2018, Zhang et al 2017). These cells stably express human SPPL2a and a doxycycline inducible eGFP TNFα (aa 1-76) NTF fusion protein (SPPL2a substrate). Both Example 1 and Example A were added at indicated concentrations and cells were incubated for 24 h, washed, and fixed. Nuclei were stained with DAPI. Images were acquired on a confocal fluorescence microscope system LSM-800 (Carl Zeiss). Image data was analyzed by using mid-section from Z-stack images of at least 10 individual cells per sample. All data is presented as mean+SEM. Statistical significance was calculated with the ANOVA test using GraphPad Prism™ 10.

human SPPL2a [2] = target: T1, human SPPL2a; test: Western blot assay of TNFα-GFP cleavage in U2OS cells expressing human SPPL2a; type: cell-based; settings: SPPL2a-U2OS reporter cells, 24 h
Procedure: To confirm the cleavage of TNF-α in the U2OS cells that express human SPPL2a, a western blot assay was performed. The same cell line used for the imaging assays were used; these cells express human SPPL2a constitutively and an eGFP-labelled TNFα (aa 1-76) NTF substrate under a doxycycline promotor. In the presence of SPPL2a activity, TNFα-GFP is cleaved at the NTF, resulting in a single 54-56 kDa band (lower MW). If SPPL2a activity is inhibited, TNFα GFP processing is abrogated resulting in a higher molecular weight band (60-62 kDa; complete inhibition) and or both 54-56 kDa and 60-62 kDa bands (incomplete inhibition, smeared appearance) on the blot. Both Example 1 and Example A were added at indicated concentrations, and cells were incubated for 24 h with the inhibitors. Total cell lysated were prepared in ice cold-1X RIPA buffer containing protease inhibitor cocktail (AKR-190, Cell BioLabs). Lysates were collected and quantified for the total protein on NanoDrop using BCA kit (23227, Thermo Scientific). […] To detect cleaved and un-cleaved TNFα-GFP fragments, anti-GFP antibody (AF4240, R&D Biosystems) was used as a primary antibody and detected using anti-goat detection module (DM-006, ProteinSimple) according to the manufacturer's protocol. Data was analyzed using ProteinSimple compass software.

[3] = In vivo epimerization and PK, statements covering all three preclinical models; design: species or system Sprague Dawley rats, beagle dogs, cynomolgus monkeys
Procedure: These factors may lead to accumulation and potenial toxicity. The effect on epimerization by substitution at the chiral carbon was tested by comparing Example A, Example 1, and Example 29 in the following preclinical in vivo pharmacokinetic models: Sprague Dawley rats, beagle dogs, and cynomolgus monkeys.
Two groups of male Sprague Dawley rats (n=3 each) received either a single 10 mg/kg PO dose of Example A or Example 1 in a vehicle consisting of 0.5% methylcellulose in water. Blood samples were collected at 0.25, 0.5, 1, 2, 4, and 6 hours postdose.
Male Sprague Dawley rats (n=3 each) received a single 3 mg/kg PO dose of Example 29 in a vehicle consisting of 5% dimethylacetamide (DMAC) in 50 mM citrate buffer w/0.5% methylcellulose. Blood samples were collected at predose, 0.25, 0.5, 1, 2, 4, 6, 8, 12, and 24 hours postdose.
(§1) Three groups of male cynomolgus monkeys (n=2 each) received either a single 3 mg/kg PO dose of Example A, Example 1, or Example 29 in a vehicle consisting of 5% dimethylacetamide (DMAC) in 50 mM citrate buffer w/0.5% methylcellulose. Blood samples were collected at predose, 0.25, 0.5, 1, 2, 3, 4, 6, 8, 12, and 24 hours postdose.
as §1, with “beagle dogs” for “cynomolgus monkeys”, “12, 24” for “12,”, “48” for “24”
All blood samples were collected using EDTA as the anticoagulant and centrifuged to obtain plasma. Plasma concentrations of Example A, Example 1, and their respective diastereomers were determined under non-GLP conditions using standard reverse phase LC-MS/MS bioanalytical methods. The individual plasma concentration-time data was used to determine the area under the curve (AUC) values using GraphPad Prism (v9.3.1).

exposures and PK (other than epimerization) across species ([3]; rats, monkeys, dogs): consistent
SMILES: CNC(=O)c1nc(C)c(C(=O)NC[C@@H](C)C(=O)N[C@@H]2C(=O)N3CCCN3Cc3ccccc32)s1 [Example A, N^2,4-dimethyl-N^5—((R)-2-methyl-3-oxo-3-(((S)-11-oxo-2,3,10,11-tetrahydro-1H,5H-benzo[d]pyrazolo[1,2-a][1,2]diazepin-10-yl)amino)propyl)thiazole-2,5-dicarboxamide]
inhibition of nuclear translocation of TNFα-GFP (human SPPL2a [1]): inhibited; also recorded: comparable and significant TNFα-GFP inhibition of nuclear translocation | TNFα-GFP cleavage inhibition (SPPL2a activity inhibition) (human SPPL2a [2]): SPPL2a activity inhibition; also recorded: Comparable and significant TNFα-GFP cleavage inhibition | in vivo epimerization at the chiral carbon in the 7-membered ring ([3]; rat, monkey and dog models, PO): exhibits epimerization in vivo; also recorded: observed in all three models
